Non-standard residues stand in square brackets, D forms with d. Residues, ends and D or L forms follow the SMILES beside them. *: point of attachment. Adamantane1carbonyl = O=C(C12CC3CC(CC(C3)C1)C2)*; Benzoyl(4-CF3) = O=C(c1ccc(C(F)(F)F)cc1)*; NH((S)CH(Me)CH2NMe2) = C[C@@H](CN(C)C)N*; Benzoyl(4-OMe) = COc1ccc(C(=O)*)cc1; Gly(octyl) = CCCCCCCC[C@H](N)C(=O)O; Oxazole4CO(2-Me) = Cc1nc(C(=O)*)co1; Thiophene2carbonyl = O=C(c1cccs1)*; X20 = O=C(c1ccc2[nH]ccc2c1)*; X4 = O=C(C1CCc2ccccc2C1)*; Aib = CC(C)(N)C(=O)O; βAla = NCCC(=O)O
How the values were obtained:
Type in all cases: cell-based
[1] = tested on: intracellular Leishmania donovani (L.don. InMac); assay: Intracellular Leishmania donovani assay (L.don. InMac); conditions: In vitro inhibition
Excerpt: (§1) Tests were done in triplicate.

[2] = tested on: Trypanosoma brucei rhodesiense (STIB 900 strain); assay: Alamar Blue assay against Trypanosoma brucei rhodesiense grown in axenic medium; conditions: In vitro inhibition, read-out: T.b.rhod.
How it was run: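 T. b. rhodesiense STIB 900 cultured in axenic medium and exposed to samples in an Alamar Blue viability assay, run in triplicate. IC50 calculated from the readout; melarsoprol served as reference drug.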

[3] = tested on: Axenically grown Leishmania donovani amastigotes (strain MHOM/ET/67/L82); assay: Axenic Leishmania donovani amastigote resazurin assay; conditions: In vitro inhibition, read-out: L.don. ax
How it was run: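 Strain MHOM/ET/67/L82 amastigotes grown axenically and tested in triplicate by resazurin assay. Plates developed 2-4 hours, fluorescence read at 536 nm excitation/588 nm emission and expressed as percentage of negative control.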

[4] = tested on: Trypanosoma cruzi trypomastigote forms (Tulahuen strain); assay: Intracellular Trypanosoma cruzi assay in L6-cells, beta-galactosidase/CPRG readout; conditions: In vitro inhibition, read-out: T.cruzi.
How it was run: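 L6 rat myoblasts infected with Tulahuen C2C4 LacZ T. cruzi; after incubation, CPRG/Nonidet substrate added and colour developed 2–6 h. Absorbance at 540 nm; IC50 calculated; triplicate tests.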

Plasmodium falciparum = assay: 3H-hypoxanthine incorporation assay against Plasmodium falciparum; conditions: In vitro inhibition, read-out: P.falc NF5
Experimental: as §1
IC50 values were calculated by linear interpolation.

SMILES	IC50 [1] [µM]	IC50 [2] [µM]	IC50 [3] [µM]	IC50 [4] [µM]	IC50 (Plasmodium falciparum) [µM]
CCCCCCCC[C@H](NC(=O)[C@@H]1CCCN1C(=O)C12CC3CC(CC(C3)C1)C2)C(=O)N[C@@H](CC(C)C)C(=O)NC(C)(C)C(=O)N[C@@H](CC(C)C)C(=O)N[C@@H](CC(C)C)C(=O)NC(C)(C)C(=O)NC(C)(C)C(=O)NCCC(=O)N[C@@H](C)CN(C)C [Compound 5770, (2S)-2-{[(2S)-1-(adamantane-1-carbonyl)pyrrolidin-2-yl]formamido}-N-[(1S)-1-[(1-{[(1S)-1-{[(1S)-1-{[1-({1-[(2-{[(2S)-1-(dimethylamino)propan-2-yl]carbamoyl}ethyl)carbamoyl]-1-methylethyl}carbamoyl)-1-methylethyl]carbamoyl}-3-methylbutyl]carbamoyl}-3-methylbutyl]carbamoyl}-1-methylethyl)carbamoyl]-3-methylbutyl]decanamide] (Adamantane1carbonyl-P[Gly(octyl)]L[Aib]LL[Aib][Aib][βAla]-{NH((S)CH(Me)CH2NMe2)})	0.338	0.0006	0.001	0.101	0.0033
CCCCCCCC[C@H](NC(=O)[C@@H]1CCCN1C(=O)c1cccs1)C(=O)N[C@@H](CC(C)C)C(=O)NC(C)(C)C(=O)N[C@@H](CC(C)C)C(=O)N[C@@H](CC(C)C)C(=O)NC(C)(C)C(=O)NC(C)(C)C(=O)NCCC(=O)N[C@@H](C)CN(C)C [Compound 5904, (2S)-N-[(1S)-1-[(1-{[(1S)-1-{[(1S)-1-{[1-({1-[(2-{[(2S)-1-(dimethylamino)propan-2-yl]carbamoyl}ethyl)carbamoyl]-1-methylethyl}carbamoyl)-1-methylethyl]carbamoyl}-3-methylbutyl]carbamoyl}-3-methylbutyl]carbamoyl}-1-methylethyl)carbamoyl]-3-methylbutyl]-2-{[(2S)-1-(thiophene-2-carbonyl)pyrrolidin-2-yl]formamido}decanamide] (Thiophene2carbonyl-P[Gly(octyl)]L[Aib]LL[Aib][Aib][βAla]-{NH((S)CH(Me)CH2NMe2)})	42.5	0.0002	42.5	36.3	32.1
CCCCCCCC[C@H](NC(=O)[C@@H]1CCCN1C(=O)c1coc(C)n1)C(=O)N[C@@H](CC(C)C)C(=O)NC(C)(C)C(=O)N[C@@H](CC(C)C)C(=O)N[C@@H](CC(C)C)C(=O)NC(C)(C)C(=O)NC(C)(C)C(=O)NCCC(=O)N[C@@H](C)CN(C)C [Compound 5905, (2S)-N-[(1S)-1-[(1-{[(1S)-1-{[(1S)-1-{[1-({1-[(2-{[(2S)-1-(dimethylamino)propan-2-yl]carbamoyl}ethyl)carbamoyl]-1-methylethyl}carbamoyl)-1-methylethyl]carbamoyl}-3-methylbutyl]carbamoyl}-3-methylbutyl]carbamoyl}-1-methylethyl)carbamoyl]-3-methylbutyl]-2-{[(2S)-1-(2-methyl-1,3-oxazole-4-carbonyl)pyrrolidin-2-yl]formamido}decanamide] ({Oxazole4CO(2-Me)}-P[Gly(octyl)]L[Aib]LL[Aib][Aib][βAla]-{NH((S)CH(Me)CH2NMe2)})	42.4	0.0002	32	42.5	26.4
CCCCCCCC[C@H](NC(=O)[C@@H]1CCCN1C(=O)C1CCc2ccccc2C1)C(=O)N[C@@H](CC(C)C)C(=O)NC(C)(C)C(=O)N[C@@H](CC(C)C)C(=O)N[C@@H](CC(C)C)C(=O)NC(C)(C)C(=O)NC(C)(C)C(=O)NCCC(=O)N[C@@H](C)CN(C)C (stereo partly drawn) [Compound 5910, (2S)-N-[(1S)-1-[(1-{[(1S)-1-{[(1S)-1-{[1-({1-[(2-{[(2S)-1-(dimethylamino)propan-2-yl]carbamoyl}ethyl)carbamoyl]-1-methylethyl}carbamoyl)-1-methylethyl]carbamoyl}-3-methylbutyl]carbamoyl}-3-methylbutyl]carbamoyl}-1-methylethyl)carbamoyl]-3-methylbutyl]-2-{[(2S)-1-(1,2,3,4-tetrahydronaphthalene-2-carbonyl)pyrrolidin-2-yl]formamido}decanamide] (X4-P[Gly(octyl)]L[Aib]LL[Aib][Aib][βAla]-{NH((S)CH(Me)CH2NMe2)})	42.6	24.8	42.6	0.0411	42.6
CCCCCCCC[C@H](NC(=O)[C@@H]1CCCN1C(=O)c1ccc2[nH]ccc2c1)C(=O)N[C@@H](CC(C)C)C(=O)NC(C)(C)C(=O)N[C@@H](CC(C)C)C(=O)N[C@@H](CC(C)C)C(=O)NC(C)(C)C(=O)NC(C)(C)C(=O)NCCC(=O)N[C@@H](C)CN(C)C [Compound 5911, (2S)-N-[(1S)-1-[(1-{[(1S)-1-{[(1S)-1-{[1-({1-[(2-{[(2S)-1-(dimethylamino)propan-2-yl]carbamoyl}ethyl)carbamoyl]-1-methylethyl}carbamoyl)-1-methylethyl]carbamoyl}-3-methylbutyl]carbamoyl}-3-methylbutyl]carbamoyl}-1-methylethyl)carbamoyl]-3-methylbutyl]-2-{[(2S)-1-(1H-indole-5-carbonyl)pyrrolidin-2-yl]formamido}decanamide] (X20-P[Gly(octyl)]L[Aib]LL[Aib][Aib][βAla]-{NH((S)CH(Me)CH2NMe2)})	0.0348	25.6	0.0144	0.034	42.5
CCCCCCCC[C@H](NC(=O)[C@@H]1CCCN1C(=O)c1ccc(OC)cc1)C(=O)N[C@@H](CC(C)C)C(=O)NC(C)(C)C(=O)N[C@@H](CC(C)C)C(=O)N[C@@H](CC(C)C)C(=O)NC(C)(C)C(=O)NC(C)(C)C(=O)NCCC(=O)N[C@@H](C)CN(C)C [Compound 5912, (2S)-N-[(1S)-1-[(1-{[(1S)-1-{[(1S)-1-{[1-({1-[(2-{[(2S)-1-(dimethylamino)propan-2-yl]carbamoyl}ethyl)carbamoyl]-1-methylethyl}carbamoyl)-1-methylethyl]carbamoyl}-3-methylbutyl]carbamoyl}-3-methylbutyl]carbamoyl}-1-methylethyl)carbamoyl]-3-methylbutyl]-2-{[(2S)-1-(4-methoxybenzoyl)pyrrolidin-2-yl]formamido}decanamide] ({Benzoyl(4-OMe)}-P[Gly(octyl)]L[Aib]LL[Aib][Aib][βAla]-{NH((S)CH(Me)CH2NMe2)})	42.6	0.0003	41.4	17.8	20.9
CCCCCCCC[C@H](NC(=O)[C@@H]1CCCN1C(=O)c1ccc(C(F)(F)F)cc1)C(=O)N[C@@H](CC(C)C)C(=O)NC(C)(C)C(=O)N[C@@H](CC(C)C)C(=O)N[C@@H](CC(C)C)C(=O)NC(C)(C)C(=O)NC(C)(C)C(=O)NCCC(=O)N[C@@H](C)CN(C)C [Compound 5936, (2S)-N-[(1S)-1-[(1-{[(1S)-1-{[(1S)-1-{[1-({1-[(2-{[(2S)-1-(dimethylamino)propan-2-yl]carbamoyl}ethyl)carbamoyl]-1-methylethyl}carbamoyl)-1-methylethyl]carbamoyl}-3-methylbutyl]carbamoyl}-3-methylbutyl]carbamoyl}-1-methylethyl)carbamoyl]-3-methylbutyl]-2-{[(2S)-1-[4-(trifluoromethyl)benzoyl]pyrrolidin-2-yl]formamido}decanamide] ({Benzoyl(4-CF3)}-P[Gly(octyl)]L[Aib]LL[Aib][Aib][βAla]-{NH((S)CH(Me)CH2NMe2)})	< 0.0332	0.0007	11.7	0.0526	31.3

Source: EP3345917A1, “ANTIPROTOZOAL COMPOUNDS” (Bacoba AG, priority 2017, dated 2018)
